Laboratory results taken from article PMC5384001 (Scientific Reports, 2017).

Target: T1, GluD2-Lc(D542Y)-(HS2)GluN1 (Rattus norvegicus, UniProt Q63226, A654T/A766F/D542Y/D767R/N763E/R768S/T764L/V761T/V765F)
T1 construct: the function of full-length receptors as well, we introduced them into the GluD2 lurcher mutant (GluD2-Lc); expressed in transfected cells; host or cells: Xenopus laevis oocytes injected with cRNA
T1 sequence (Q63226 24-1007 D542Y/A654T/V761T/N763E/T764L/V765F/A766F/D767R/R768S): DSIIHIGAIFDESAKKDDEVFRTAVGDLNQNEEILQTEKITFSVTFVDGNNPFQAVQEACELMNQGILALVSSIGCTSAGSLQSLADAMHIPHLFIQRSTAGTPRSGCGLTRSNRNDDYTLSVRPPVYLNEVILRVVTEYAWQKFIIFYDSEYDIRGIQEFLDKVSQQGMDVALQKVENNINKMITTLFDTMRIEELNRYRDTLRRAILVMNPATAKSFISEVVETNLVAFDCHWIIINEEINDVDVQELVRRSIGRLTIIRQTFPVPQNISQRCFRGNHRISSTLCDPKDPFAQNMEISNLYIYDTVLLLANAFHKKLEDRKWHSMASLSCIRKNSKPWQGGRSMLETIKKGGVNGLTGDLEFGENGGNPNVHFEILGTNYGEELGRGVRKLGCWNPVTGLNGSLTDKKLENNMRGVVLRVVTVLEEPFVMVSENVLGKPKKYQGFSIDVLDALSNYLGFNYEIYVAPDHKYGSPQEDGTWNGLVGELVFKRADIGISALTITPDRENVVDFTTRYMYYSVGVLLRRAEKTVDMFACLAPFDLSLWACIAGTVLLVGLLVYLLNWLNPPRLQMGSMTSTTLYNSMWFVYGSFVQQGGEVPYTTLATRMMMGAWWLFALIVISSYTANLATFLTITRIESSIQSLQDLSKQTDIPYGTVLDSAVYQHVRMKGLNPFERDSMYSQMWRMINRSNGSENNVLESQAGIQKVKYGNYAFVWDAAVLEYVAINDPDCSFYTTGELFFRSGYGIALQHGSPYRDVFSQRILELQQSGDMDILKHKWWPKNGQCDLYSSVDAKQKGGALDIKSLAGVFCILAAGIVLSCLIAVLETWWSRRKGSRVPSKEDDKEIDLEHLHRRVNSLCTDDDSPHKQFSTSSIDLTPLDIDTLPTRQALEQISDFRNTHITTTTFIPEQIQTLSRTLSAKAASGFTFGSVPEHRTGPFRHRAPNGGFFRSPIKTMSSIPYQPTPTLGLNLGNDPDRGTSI
Assay: Two-electrode voltage clamp in Xenopus oocytes, inhibition of spontaneous currents
Assay type: cell-based
Source text: All cDNAs for expression in Xenopus oocytes were cloned into the vector pSGEM[30]. Point mutants of GluD2-Lc were constructed by overlap extension PCR with mutagenic oligonucleotide primers. The GluD2-Lc-(H)GluN1 chimera was constructed by transferring the S1- and S2-encoding sequences from GluD2-LBD-(H)GluN1 to GluD2-Lc via overlap extension PCR using tail primers. The S1 and S2 sequences were transferred separately, yielding GluD2-Lc-(HS1)GluN1 and GluD2-Lc-(HS2)GluN1 constructs. GluD2-Lc-(H)GluN1 was then produced from these by another overlap extension PCR. Complementary RNA (cRNA) for injection into oocytes was synthesised from 1 μg of linearised template DNA with the mMESSAGE mMACHINE in vitro transcription kit (Ambion, Austin, TX, USA).
Oocytes were obtained by surgically removing parts of the ovaries from Xenopus laevis (Nasco, Fort Atkinson, WI, USA) anaesthetised with 1.5 g/L 3-aminobenzoic acid ethylester (Sigma, Taufkirchen, Germany). The ovary clippings were digested with 784 U/mL (4 mg/mL) collagenase type I (Worthington, Lakewood, NJ, USA) in Ca^2+-free Barth’s solution (88 mM NaCl, 1.1 mM KCl, 2.4 mM NaHCO3, 0.8 mM MgSO4, 15 mM HEPES-NaOH, pH 7.6) with gentle agitation for 1.5–2 h at 20 °C to remove the follicular cell layer. After stopping the collagenase digestion by washing with Barth’s solution (88 mM NaCl, 1.1 mM KCl, 2.4 mM NaHCO3, 0.3 mM Ca(NO3)2, 0.4 mM CaCl2, 0.8 mM MgSO4, 15 mM HEPES-NaOH, pH 7.6), defolliculated oocytes of stages V and VI were selected and maintained at 16 °C in Barth’s solution supplemented with 100 μg/mL gentamicin, 40 μg/mL streptomycin, and 63 μg/mL penicillin. Oocytes were injected with 11 ng cRNA (10 ng of each cRNA for co-expression of GluN1 and GluN2A) using a nanoliter injector (WPI, Sarasota, FL, USA). Four days after cRNA injection, current responses were recorded under voltage clamp at –70 mV with a Turbo Tec-10CD amplifier (npi electronic, Tamm, Germany) controlled by Patchmaster software (HEKA, Lambrecht, Germany). Currents were filtered with a 20 Hz low-pass filter and then digitised with a sampling rate of 50 Hz. Recording electrodes were pulled from borosilicate glass (Hilgenberg, Malsfeld, Germany) with an L/M-3P-A vertical pipette puller (List-Medical), filled with 3 M KCl, and had resistances of 0.5–5 MΩ (voltage electrode) or 0.5–1.5 MΩ (current electrode). Recordings were performed in a 50 μL chamber under constant superfusion with extracellular solution at a flow rate of 3–5 mL/min. […] Finally, Ba-NFR and then NMDGR were applied again to check for reversibility.

Compound: N[C@H](CO)C(=O)O [D-serine]
- D-serine efficacy Mean ± SEM (fraction of spontaneous current inhibited by D-serine): –3.4 ± 0.5%
- sensitivity to D-serine (inhibition of spontaneous currents): insensitive
